# Reference: patent US7087223B2, “Preventives and/or remedies for hyperphosphatemia” (Hisamitsu Pharmaceutical Co., Inc., priority 2000, dated 2006)
# How the values were obtained:
# rats with ⅚ nephrectomy = test: Effects on blood phosphorus concentration and renal function in rats with 5/6 nephrectomy; format: in vivo, rat; conditions: 0.3 g in 15 g of feed, 12 weeks after nephrectomy, vs control
# Experimental: Effects on Blood Phosphorus Concentration and Renal Function in Rats With ⅚ Nephrectomy
# Using male SD rats (aged 9 weeks), the experiments on the effects for the lowering action of urinary phosphorus amount and the renal function in the weakly basic anion exchange resin (Ionac A-365; Sybron Chemicals. Co.) or calcium carbonate were carried out as follows.
# Namely, ⅔ of the left kidney was removed, after 1 week the right kidney being totally removed to make rats with ⅚ nephrectomy. After 1 week, a mixed feed administration of calcium carbonate or Ionac A-365 started. As a powder feed for rat MF manufactured by Oriental Yeast was used, and the administration dose was made 0.3 g content in 15 g of the feed. 12 weeks after the preparation of rats with ⅚ nephrectomy, blood was collected from the caudal vein, and the blood phosphorus concentration was measured by an inorganic phosphorus measurement reagent (P Test Wako). Also, urine was collected for 24 hours before the nephrectomy and 12 weeks after the nephrectomy, and the urinary protein concentration being measured by a protein measurement reagent (Protein Assay Kit, Bio-lad). As for rats in each group, 9 rats in each were subjected to the experiments.
# male SD rats = test: Effects on amount of urinary phosphorus in normal rats; format: in vivo; conditions: 0.5 g in feed (20 g/rat/day) containing 0.58% phosphorus, 5 days, vs control, FIG. 2
# Experimental: Effects on Amount of Blood and Urinary Phosphorus in Normal Rats
# Using male SD rats (aged 8 weeks), the experiments on suppressive effects for the increase of urinary phosphorus amount in the weakly basic anion exchange resin (Ionac A-365; Sybron Chemicals Co.) or calcium carbonate were carried out as follows.
# Namely, after the rats were given with feed (20 g/rat/day) containing 0.3% phosphorus for 7 days, feed (20 g/rat/day) containing 0.58% phosphorus was mixed with 0.5 g of Ionac A-365 or calcium carbonate and the mix feed was further administered to the rats for 5 days. Further, urine was collected for 24 hours before the drug administration and 5 days after the drug administration, and the amount of urinary phosphorus was calculated based on the urinary phosphorus concentration and the amount of urine. The urinary phosphorus concentration was measured by an inorganic phosphorus measurement reagent (P Test Wako). The increased amount of urinary phosphorus excretion was calculated based on the obtained difference of urinary phosphorus amount between before drug administration and 5 days after the drug administration, and compared with that of the non-administration group (control). As for rats in each group, 6 rats in each were subjected to the experiments.
structure (smiles),measurement,setting,value
O=C([O-])[O-].[Ca+2] [calcium carbonate],blood phosphorus concentration,rats with ⅚ nephrectomy; FIG. 3,no significant difference in blood phosphorus concentration compared with control
same,increase of urinary protein excretion amount,rats with ⅚ nephrectomy; FIG. 4,significantly suppressed compared with control
same,increase of urinary phosphorus excretion,male SD rats,significantly suppressed compared with that of control
